# pIC50: −log10 of the molar value.
# Tested on: not given
# Assay: not given
# Settings: not given
row,melting point,Structure (SMILES)
1,223 to 225 °C (dec.),O=[N+]([O-])c1ccc(NCCNc2nccc(-c3ccc(N4CCOCC4)cc3)n2)nc1 [[4-(4-morpholin-4-ylphenyl)-pyrimidin-2-yl]{2-[(5-nitro(2-pyridyl))amino]ethyl}amine]

# Target: human GSK3β (Homo sapiens, UniProt P49841)
# Assay: Screening for GSK3 inhibitory activity using a cell-free assay
# Type: biochemical
# Settings: read-out: IC50 with respect to GSK3
# Summary of the method: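 Radiometric cell-free assay with recombinant human GSK3β phosphorylating a biotinylated peptide substrate for 3 h. Reactions were stopped with 50 μM ATP/20 mM EDTA and captured on streptavidin plates. Incorporated radiolabel was counted by scintillation and plotted against compound concentration.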
# Chain of human GSK3β (P49841 whole entry): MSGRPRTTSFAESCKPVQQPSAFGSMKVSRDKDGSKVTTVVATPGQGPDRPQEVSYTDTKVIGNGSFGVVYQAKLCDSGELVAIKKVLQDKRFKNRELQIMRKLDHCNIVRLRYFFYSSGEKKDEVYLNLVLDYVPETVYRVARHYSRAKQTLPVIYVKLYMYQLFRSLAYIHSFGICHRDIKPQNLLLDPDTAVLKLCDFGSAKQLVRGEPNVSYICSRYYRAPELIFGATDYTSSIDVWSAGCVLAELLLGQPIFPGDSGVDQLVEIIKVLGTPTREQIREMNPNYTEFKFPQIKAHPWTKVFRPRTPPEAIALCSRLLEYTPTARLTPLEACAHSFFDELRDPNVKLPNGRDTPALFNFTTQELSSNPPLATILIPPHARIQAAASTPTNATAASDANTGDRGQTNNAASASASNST
row,pIC50,Structure (SMILES)
1,≥ 6.00,N#Cc1ccc(-c2nc(NCCNc3ccc([N+](=O)[O-])cn3)nc(-c3ccoc3)c2C(=O)O)cc1 [4-(4-cyanophenyl)-6-(3-furyl)-2-({2-[(5-nitro(2-pyridyl))-amino]ethyl}amino)pyrimidine-5-carboxylic acid]
2,≥ 6.00,"O=[N+]([O-])c1ccc(NCCNc2ncc(CO)c(-c3ccc(Cl)cc3Cl)n2)nc1 [[4-(2,4-dichlorophenyl)-2-({2-[(5-nitro(2-pyridyl))amino]ethyl}amino)-pyrimidin-5-yl]methan-1-ol]"
3,≥ 6.00,N#Cc1ccc(-c2nc(NCCNc3ccc([N+](=O)[O-])cn3)ncc2C#N)cc1 [4-(4-cyanophenyl)-2-({2-[(5-nitro(2-pyridyl))amino]ethyl}amino)pyrimidine-5-carbonitrile]
4,≥ 5.00,"CCOC(=O)c1cnc(NCCNc2ccc([N+](=O)[O-])cn2)nc1-c1ccc(Cl)c(Cl)c1 [ethyl 4-(3,4-dichlorophenyl)-2-({2-[(5-nitro(2-pyridyl))amino]ethyl}amino)pyrimidine-5-carboxylate]"
5,≥ 5.00,CCOC(=O)c1cnc(NCCNc2ccc(N)cn2)nc1-c1ccc(C#N)cc1 [ethyl 2-({2-[(5-amino(2-pyridyl))amino]ethyl}amino)-4-(4-cyanophenyl)pyrimidine-5-carboxylate]
6,≥ 6.00,CCOC(=O)c1cnc(NCCNc2ccc(C(F)(F)F)cn2)nc1-c1ccc(C#N)cc1 [ethyl 4-(4-cyanophenyl)-2-[(2-{[5-(trifluoromethyl)(2-pyridyl)]amino}ethyl)-amino]pyrimidine-5-carboxylate]
7,≥ 6.00,CCOC(=O)c1c(CC)nc(NCCNc2ccc([N+](=O)[O-])cn2)nc1-c1ccc(C#N)cc1 [ethyl 4-(4-cyano-phenyl)-6-ethyl-2-({2-[(5-nitro(2-pyridyl))amino]ethyl}amino)pyrimidine-5-carboxylate]
8,≥ 5.00,O=C(NCC1CCNCC1)c1ccc(-c2ccnc(NCCNc3ccc([N+](=O)[O-])cn3)n2)cc1 [{4-[2-({2-[(5-nitro(2-pyridyl))amino]ethyl}amino)pyrimidin-4-yl]phenyl}-N-(4-piperidylmethyl)carboxamide]

# Further lines, the compound ahead of its results:
row,Structure (SMILES),pIC50
1,O=[N+]([O-])c1ccc(NCCNc2nccc(-c3ccc(N4CCOCC4)cc3)n2)nc1 [[4-(4-morpholin-4-ylphenyl)-pyrimidin-2-yl]{2-[(5-nitro(2-pyridyl))amino]ethyl}amine],≥ 6.00
2,CCCCOc1ccc(-c2nc(NCCNc3ccc([N+](=O)[O-])cn3)ncc2C(=O)OCC)cc1 [ethyl 4-(4-butoxyphenyl)-2-({2-[(5-nitro(2-pyridyl))amino]ethyl}amino)pyrimidine-5-carboxylate],≥ 5.00
3,"CNCC(=O)Nc1cnc(NCCNc2ccc([N+](=O)[O-])c(N)n2)nc1-c1ccc(Cl)cc1Cl [N-[2-({2-[(6-amino-5-nitro(2-pyridyl))amino]ethyl}amino)-4-(2,4-dichlorophenyl)pyrimidin-5-yl]-2-(methylamino)acetamide]",≥ 6.00
4,Cc1cnc(NCCNc2ccccn2)nc1-c1ccc(Cl)cc1 [[4-(4-chlorophenyl)-5-methylpyrimidin-2-yl][2-(2-pyridylamino)ethyl]amine],≥ 5.00
5,NC(=O)c1ccc(-c2ccnc(NCc3cccc(Br)c3)n2)cc1 [4-(2-{[(3-bromophenyl)methyl]amino}pyrimidin-4-yl)benzamide],≥ 5.00
6,Cc1cccc(CNc2ccnc(NCCNc3ccc([N+](=O)[O-])cn3)n2)c1 [[(3-methylphenyl)methyl][2-({2-[(5-nitro-(2-pyridyl))amino]ethyl}amino)pyrimidin-4-yl]amine],≥ 5.00
7,"CN1CCN(c2ccc(NCCNc3ccc(C#N)cn3)nc2-c2ccc(Cl)cc2Cl)C(=O)C1 [6-[(2-{[6-(2,4-dichlorophenyl)-5-(4-methyl-2-oxo-1-piperazinyl)-2-pyridinyl]amino}ethyl)amino]nicotinonitrile]",≥ 5.00
8,COc1ccc(CNc2nccc(-c3ccc(C(N)=O)cc3)n2)cc1 [4-(2-{[(4-methoxyphenyl)methyl]amino}pyrimidin-4-yl)benzamide],≥ 5.00

# — patent US7425557B2, “Inhibitors of glycogen synthase kinase 3” (Novartis Vaccines and Diagnostics, Inc., priority 1998, dated 2008)
